Measurements taken from PubChem BioAssay (NCI).
Values joined by “and” are separate entries in the source; they are usually repeats but may differ in a detail not shown here. Equal values may be shown once.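 Cultured in 96-well plates, cells were exposed to test compound for 48 hours across five concentrations. GI50 is the concentration that inhibits growth by half. TGI is the concentration that stops growth completely.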

Key:
Assay in all cases: DTP human tumour cell line panel, 48 h
[1] = system: PC-3 prostate
[2] = system: LOX IMVI melanoma
[3] = system: M19-MEL melanoma
[4] = system: SF-268 CNS
[5] = system: IGROV1 ovarian
[6] = system: UACC-62 melanoma
[7] = system: HOP-92 NSCLC
[8] = system: DLD-1 colon
[9] = system: MDA-MB-231 breast
[10] = system: NCI-H226 lung

Structure (SMILES)	TGI [1] [µM]	TGI [2] [µM]	TGI [3] [µM]	TGI [4] [µM]	TGI [5] [µM]	TGI [6] [µM]	TGI [7] [µM]	TGI [8] [µM]	TGI [9] [µM]	TGI [10] [µM]	GI50 [2] [µM]	GI50 [3] [µM]	GI50 [4] [µM]	GI50 [5] [µM]	GI50 [6]	GI50 [7] [µM]	GI50 [8] [µM]	GI50 [10] [µM]
O=C1c2ccccc2C(=O)c2c(/C=C\N3CCCCC3)ccnc21	28	1.68	0.563	39.9	36.8	1.58	32.1	15.8	73.3	8.31	–	–	–	–	–	–	–	–
CCC(C)SC1SCC2C(=O)N(C)C3(CC3C)C(=O)OCC(NC(=O)c3nc4ccccc4cc3O)C(=O)NC(C)C(=O)N(C)C1C(=O)N(C)C1(CC1C)C(=O)OCC(NC(=O)c1nc3ccccc3cc1O)C(=O)NC(C)C(=O)N2C (centres undefined)	0.0049	0.000122	0.000236	0.00516	3.54	5.01e-05	0.000585	0.0732	0.000567	0.000892	–	–	–	–	–	–	–	–
Cc1[cH-]c(=O)n(-c2ccccc2)n1.[Au+].[Au].c1ccc([PH+](c2ccccc2)c2ccccc2)cc1.c1ccc([PH+](c2ccccc2)c2ccccc2)cc1	–	46.8	> 100	31.9	31.7	> 100	7.77	41.5	–	77.8	18	28.1	7.14	13.6	3.55 µM and 22.2 µM	2.79	15.7	26.7
[O-][Cl+3]([O-])([O-])[O-].[O]=[Ru]=[O].c1ccc(-c2ccccn2)nc1.c1ccc(-c2ccccn2)nc1	–	> 100	> 100	> 100	> 100	> 100	> 100	> 100	–	> 100	56.8	> 100	65.7	58.8	> 100 µM	> 100	> 100	56.7
COc1cc2c(cc1OC)C(Cl)C(c1ccc(F)cc1)=C2Cl (centres undefined)	24.9	27.7	38.7	39.5	37.2	29.8	22.6	32.9	27	74	–	–	–	–	–	–	–	–
O=c1c2cccnc2ncn1CCN1CCCCC1	–	> 100	> 100	> 100	> 100	> 100	> 100	> 100	–	> 100	–	–	–	–	–	–	–	–
O=S1C(=c2ccc(=C3Sc4ccccc4S3)cc2)Sc2ccccc21 (centres undefined)	–	32.2	38.3	37.3	> 95.5	35.2	> 100	> 93.3	–	34	–	–	–	–	–	–	–	–
CN(C)CC1CCC/C1=N/OC(=O)c1ccccc1 (centres undefined)	–	> 100	> 100	> 100	> 100	> 100	> 100	> 100	–	> 100	–	–	–	–	–	–	–	–
O=C(/C=C/c1c(O)ccc2ccccc12)c1ccc([N+](=O)[O-])cc1	–	33.4	35.4	> 100	> 100	33.3	30.9	40.8	–	> 100	–	–	–	–	–	–	–	–
